Measurements from ChEMBL document CHEMBL1201862, “PubChem BioAssay data set” (2004).
Active and inactive are the calls of the source.

Columns and labels:
[1] = target: T1, Short transient receptor potential channel 4 (Mus musculus, UniProt Q9QUQ5); test: mouse TRPC4 channel activators, dose response, cell-based, HEK293 TRPC4/mu-opioid, Fluo-4 calcium (AID 434937); format: functional
T1 sequence (Q9QUQ5 whole entry): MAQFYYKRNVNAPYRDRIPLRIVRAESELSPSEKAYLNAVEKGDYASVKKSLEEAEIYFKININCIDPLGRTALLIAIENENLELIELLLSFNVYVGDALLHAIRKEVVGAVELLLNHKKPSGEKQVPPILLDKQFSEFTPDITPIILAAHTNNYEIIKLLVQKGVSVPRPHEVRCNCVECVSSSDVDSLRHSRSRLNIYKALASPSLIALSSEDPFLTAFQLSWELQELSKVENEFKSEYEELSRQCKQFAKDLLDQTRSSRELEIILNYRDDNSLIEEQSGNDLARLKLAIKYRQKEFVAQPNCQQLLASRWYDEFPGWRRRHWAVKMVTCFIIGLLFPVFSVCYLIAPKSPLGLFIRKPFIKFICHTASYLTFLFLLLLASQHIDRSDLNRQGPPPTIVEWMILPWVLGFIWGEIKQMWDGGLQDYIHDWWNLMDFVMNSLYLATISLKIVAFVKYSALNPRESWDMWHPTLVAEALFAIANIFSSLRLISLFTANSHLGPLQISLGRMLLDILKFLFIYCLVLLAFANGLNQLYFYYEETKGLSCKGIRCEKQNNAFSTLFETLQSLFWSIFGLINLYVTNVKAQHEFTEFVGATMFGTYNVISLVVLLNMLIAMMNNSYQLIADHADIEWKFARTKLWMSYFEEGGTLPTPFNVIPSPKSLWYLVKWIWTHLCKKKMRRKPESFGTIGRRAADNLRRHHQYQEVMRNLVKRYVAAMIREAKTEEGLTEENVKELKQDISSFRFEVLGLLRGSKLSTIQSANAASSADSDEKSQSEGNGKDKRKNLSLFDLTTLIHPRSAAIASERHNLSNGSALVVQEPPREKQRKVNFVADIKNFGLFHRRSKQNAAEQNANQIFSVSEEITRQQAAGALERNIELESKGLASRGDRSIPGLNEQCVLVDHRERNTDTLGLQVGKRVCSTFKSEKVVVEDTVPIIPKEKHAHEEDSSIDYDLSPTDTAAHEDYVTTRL

[2] = target: FAD-linked sulfhydryl oxidase ALR (Homo sapiens, UniProt P55789); test: inhibitors of human ALR sulfhydryl oxidase, dose response, biochemical, H2O2 detection, luminescence, cherry-pick (AID 493248)
[3] = target: T2, Rac GTPase-activating protein 1 (Homo sapiens, UniProt Q9H0H5); test: MgcRacGAP GTPase-activating activity inhibitors, confirmation, biochemical, ADP Hunter fluorescence, primary and confirmatory (AID 624330); format: functional
T2 sequence (Q9H0H5 whole entry): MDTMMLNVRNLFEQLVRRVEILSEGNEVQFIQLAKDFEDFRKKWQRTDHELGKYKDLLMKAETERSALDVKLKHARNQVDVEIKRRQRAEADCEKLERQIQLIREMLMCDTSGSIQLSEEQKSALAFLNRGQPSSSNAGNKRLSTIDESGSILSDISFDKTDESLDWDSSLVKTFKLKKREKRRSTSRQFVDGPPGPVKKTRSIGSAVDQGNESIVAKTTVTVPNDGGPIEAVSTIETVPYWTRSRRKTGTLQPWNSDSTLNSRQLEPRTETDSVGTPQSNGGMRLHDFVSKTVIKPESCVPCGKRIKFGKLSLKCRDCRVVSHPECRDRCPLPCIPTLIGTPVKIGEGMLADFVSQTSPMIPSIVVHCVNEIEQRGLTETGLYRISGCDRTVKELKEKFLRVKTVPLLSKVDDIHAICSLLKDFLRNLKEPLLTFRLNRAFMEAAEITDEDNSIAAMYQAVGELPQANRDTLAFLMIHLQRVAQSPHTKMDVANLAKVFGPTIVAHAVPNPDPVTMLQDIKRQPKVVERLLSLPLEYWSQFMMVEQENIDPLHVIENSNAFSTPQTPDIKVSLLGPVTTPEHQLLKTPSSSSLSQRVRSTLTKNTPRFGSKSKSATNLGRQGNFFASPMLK

SN12K1 = test: cells; format: functional; conditions: Homo sapiens, SN12K1
P388 = test: cells; format: functional; conditions: Mus musculus, P388
P388/ADR = test: cells; format: functional; conditions: Mus musculus
H9c2 = test: cells; format: functional, cell-based; conditions: Rattus norvegicus, H9c2, Myocardium;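 further: confirmatory concentration-response retest of ultra-high-throughput screening hits for modulation of myocardial damage; cell death induced by hydrogen peroxide oxidative stress; compound pretreatment for 60 min then peroxide exposure for 2 h; potency is for protecting the cells against peroxide damage rather than for killing them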
[4] = Shn3 3'UTR reporter inhibitors, dose response, cell-based, Clone20 osteoblasts, firefly luciferase, cherry-picked (AID 624132); format: functional;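 further: firefly luciferase luminescence from reporter carrying the Shn3 3'UTR in osteoblasts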
[5] = control 3'UTR Renilla luciferase suppression, dose response, counter-screen for Shn3 inhibitor project, cell-based, Clone20-Shn3RL, cherry-picked (AID 624133); format: functional
[6] = HepG2 cell cytotoxicity, dose response, cytotoxicity control for Shn3 inhibitor project, CellTiter-Glo, cherry-picked (AID 624134); format: functional, cell-based
cells = format: functional

Sequence of FAD-linked sulfhydryl oxidase ALR (P55789 whole entry): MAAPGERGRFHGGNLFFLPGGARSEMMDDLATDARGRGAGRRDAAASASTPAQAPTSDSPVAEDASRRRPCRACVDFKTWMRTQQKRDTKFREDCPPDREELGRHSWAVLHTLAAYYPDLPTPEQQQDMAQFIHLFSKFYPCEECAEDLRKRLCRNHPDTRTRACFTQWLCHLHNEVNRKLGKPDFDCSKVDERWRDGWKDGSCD

**Q.** With `CCN1CCN(c2ccc(S(=O)(=O)N3CCCCC3)cc2NC(=O)c2cccc(Cl)c2)CC1` as the molecule, how does the EC50 [1] read?
**A.** Its EC50 is 3.76 µM (active).

**Q.** For `COc1cc(NC(=O)C(c2ccccc2)c2ccccc2)c(C(=O)O)cc1OC`, which AC50 [2] is on record?
**A.** The AC50 was 10.2 µM (active).

**Q.** For `Cc1ccccc1OCCn1c(S)nc2c(N)ncnc21`, which IC50 [3] is on record?
**A.** Its IC50 is 41.6 µM (active).

**Q.** For `CCN(CC)CCCOC(=O)/C=C/c1c(C)[nH]c(=O)[nH]c1=O`, which GI50 (SN12K1) is on record?
**A.** The GI50 was > 625 µM (inactive).

**Q.** What about the GI50 (P388) of the same molecule?
**A.** The GI50 was > 625 µM (inactive).

**Q.** And the GI50 (P388/ADR)?
**A.** The GI50 was 426 µM (inactive).

**Q.** For `Cc1c(/C=N/NC(=O)c2ccc(O)cc2)c2ccccn2c1C(=O)c1ccc(F)cc1`, which IC50 (H9c2) is on record?
**A.** The IC50 was > 79 µM (inactive).

**Q.** For `CC1Cc2ccccc2C(=O)N1` (stereo unspecified), which IC50 (H9c2) is on record?
**A.** Its IC50 is 12.5 µM (active).

**Q.** For `COc1ccc(OC)c(/C=N/NC(=O)c2cc3c(OC)c(OC)ccc3[nH]2)c1`, which IC50 (H9c2) is on record?
**A.** Its IC50 is > 79 µM (inactive).

**Q.** With `COc1cccc(CN(C)C(=O)c2cccc(S(=O)(=O)N3CCN(Cc4ccccc4)CC3)c2)c1OC` as the molecule, how does the AC50 [4] read?
**A.** The AC50 was 4.94 µM (active).

**Q.** What about the AC50 [5] of the same molecule?
**A.** Its AC50 is 8.32 µM (active).

**Q.** And the AC50 [6]?
**A.** The AC50 was 63.3 µM (active).

**Q.** With `CSc1ccc(CN2CCC(C(=O)NCc3ccc(C)cc3)CC2)cc1` as the molecule, how does the IC50 [3] read?
**A.** The IC50 was 108 µM (active).

**Q.** For `COc1ccc(C(CNC(=O)c2ccc3c(c2)OCCO3)N(C)C)cc1` (stereo unspecified), which EC50 [1] is on record?
**A.** Its EC50 is 0.237 µM (active).

**Q.** For `NC(=O)c1ccc(CSc2nc3ccccc3s2)cc1`, which AC50 [2] is on record?
**A.** The AC50 was 0.73 µM (active).

**Q.** Which EC50 [1] does the source give for `COc1ccc(C(CNCC(O)COc2c(C)ccc(C)c2C)N(C)C)cc1` (stereo unspecified) here?
**A.** The EC50 was 1.19 µM (active).

**Q.** For `C=C1CC(OC)(C(OC)C(=O)N(C)[C@H]2OCO[C@H]3C2O[C@H](C[C@@H](COC)OC)C(C)(C)C3OC)O[C@H](C)[C@@H]1C` (stereo partly specified), which GI50 (SN12K1) is on record?
**A.** The GI50 was 10.9 µM (inactive).

**Q.** And the GI50 (P388)?
**A.** Its GI50 is 3.58 µM (inactive).

**Q.** And the GI50 (P388/ADR)?
**A.** Its GI50 is 5.58 µM (inactive).

**Q.** With `COc1cc(O)c(Cc2ccccc2O)c(O)c1C(=O)CCc1ccccc1` [UVARETIN] as the molecule, how does the GI50 (SN12K1) read?
**A.** The GI50 was 5.55 µM (inactive).

**Q.** What about the GI50 (P388) of the same molecule?
**A.** The GI50 was 4.37 µM (inactive).

**Q.** And the GI50 (P388/ADR)?
**A.** Its GI50 is 5.38 µM (inactive).

**Q.** Which results are given for `CC(C)[C@](O)(C(=O)OCC1=CC[N+]2([O-])CC[C@@H](O)[C@@H]12)[C@H](C)O` (stereo partly specified) [INDICINE N-OXIDE]?
**A.** GI50 (SN12K1): > 10000 µM (inactive); GI50 (P388): 6490 µM (inactive); GI50 (P388/ADR): > 8990 µM (inactive)

**Q.** With `CC(=O)C(=O)NC1/C=C(C)\C=C/C(O)C/C=C(C)\C=C/C(O)CC2OC(=O)C1(C)C(=O)C2C` (stereo unspecified) as the molecule, how does the GI50 (SN12K1) read?
**A.** Its GI50 is > 100 µM (inactive).

**Q.** And the GI50 (P388)?
**A.** The GI50 was 10.4 µM (inactive).

**Q.** And the GI50 (P388/ADR)?
**A.** Its GI50 is 28.4 µM (inactive).

**Q.** Which IC50 (H9c2) does the source give for `COc1cccc(C(c2nnnn2Cc2ccccc2)N2CCN(C3CCCC3)CC2)c1OC` (stereo unspecified) here?
**A.** Its IC50 is > 79 µM (inactive).

**Q.** Which EC50 [1] does the source give for `O=C(NCc1cccnc1)C1CCCN(Cc2cnn(-c3ccccc3)c2-n2cccc2)C1` (stereo unspecified) here?
**A.** The EC50 was 1.68 µM (active).

**Q.** For `CSc1nc(NC2OC(CO)C(O)C(O)C2O)c(N)c(=O)n1C` (stereo unspecified), which GI50 (SN12K1) is on record?
**A.** The GI50 was > 100 µM (inactive).

**Q.** And the GI50 (P388)?
**A.** The GI50 was > 100 µM (inactive).

**Q.** And the GI50 (P388/ADR)?
**A.** Its GI50 is > 100 µM (inactive).

**Q.** For `O=C(COc1cccc2c1CCNC2=O)NC1CCCCC1`, which IC50 (H9c2) is on record?
**A.** The IC50 was > 79 µM (inactive).

**Q.** Which IC50 (cells) does the source give for `O=C(N/N=C/C(Br)=C/c1ccccc1)c1cnccn1` here?
**A.** Its IC50 is 31.1 µM (active).

**Q.** With `COc1cc(/C=C/C(=O)OCC(=O)Nc2ccc3c(c2)OCO3)ccc1O` as the molecule, how does the IC50 [3] read?
**A.** The IC50 was 48.2 µM (active).
